These results are taken from PubChem BioAssay (NCI).

Test systems include TK-10 renal; UACC-62 melanoma; SN12C renal; RXF 393 renal; PC-3 prostate; HOP-92 NSCLC; NCI-H460 lung; HOP-62 NSCLC; 786-0 renal; U251 CNS.
Assay in all cases: DTP human tumour cell line panel, 48 h

As usually defined, the TGI is the concentration at which net growth stops. A low value points to more potent growth arrest.

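Test compounds were applied to cells in 96-well plates for 48 hours at 5 doses. TGI: total growth inhibition.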

On to `O=c1[nH]c2ccc(C(F)(F)F)cc2nc1-c1ccccc1`, for which the TGI in the test with TK-10 renal, in the test on UACC-62 melanoma, with SN12C renal, with RXF 393 renal, in the test with PC-3 prostate and in the test on HOP-92 NSCLC was over 100 µM throughout. The TGI in the test with NCI-H460 lung, in the test on HOP-62 NSCLC and in the test with 786-0 renal was over 100 µM in each case.

As for `Brc1cccc(/C=C/CN2CCN(CCOC(c3ccccc3)c3ccccc3)CC2)c1`, the TGI with TK-10 renal stood at 33.9 µM; in the test with UACC-62 melanoma, 31.8 µM; in the test on SN12C renal, 32.3 µM; in the test on RXF 393 renal it was 24.6 µM; with PC-3 prostate, 26.5 µM; with HOP-92 NSCLC it was 17.8 µM. In addition, the TGI in the test on NCI-H460 lung came to 28.1 µM; with HOP-62 NSCLC it was 30.1 µM; with U251 CNS it was 27.5 µM; in the test with 786-0 renal it was 31.7 µM.

As to `CCOC(=O)/C(C#N)=C/c1ccc2c(-c3c(OCC)ccc4cc(/C=C(\C#N)C(=O)OCC)ccc34)c(OCC)ccc2c1`, the TGI in the test with TK-10 renal, with UACC-62 melanoma, with SN12C renal, in the test on RXF 393 renal, in the test on PC-3 prostate and in the test with HOP-92 NSCLC was over 100 µM in each case. Besides, the TGI in the test with NCI-H460 lung, with HOP-62 NSCLC, with U251 CNS and in the test with 786-0 renal was over 100 µM in each case.

As for `CCCCCCCCCOC(=O)c1cnc(Cl)cn1`, the total growth inhibition concentration (TGI) is 43.9 µM in the test on TK-10 renal; 33.3 µM with UACC-62 melanoma; 36.9 µM in the test on SN12C renal; 24 µM in the test with PC-3 prostate; over 100 µM in the test with HOP-92 NSCLC; 41.5 µM in the test on NCI-H460 lung. The values for the TGI with HOP-62 NSCLC, with U251 CNS and with 786-0 renal were 44.9 µM, 33.9 µM and over 100 µM, respectively.

In the case of `C=C1C(=O)O[C@@H]2[C@H]3O[C@]3(C)CCC=C(C)CC[C@@H]12`, the TGI in the test on UACC-62 melanoma was 37.7 µM; in the test with SN12C renal it was 50.2 µM; with RXF 393 renal, 27.4 µM; in the test on HOP-92 NSCLC it was 26.5 µM; with NCI-H460 lung it was 56.4 µM; in the test on HOP-62 NSCLC, 102 µM. The molecule further registered a TGI with U251 CNS of 88.6 µM.

With `CC1C(c2ccc(F)cc2)c2cc3c(cc2OC1N1CCCC1)OCO3` (stereo not given), the TGI is over 100 µM in the test on TK-10 renal; over 100 µM with UACC-62 melanoma; over 100 µM with SN12C renal; over 100 µM with PC-3 prostate; 45.7 µM in the test with HOP-92 NSCLC; over 100 µM in the test with HOP-62 NSCLC. Moreover, the TGI in the test with 786-0 renal is over 100 µM.

Consider `c1ccc2c(c1)ccc1nc(-c3ccc4c(c3)OCO4)c3c(c12)CCCC3`, for which the TGI in the test on UACC-62 melanoma is 82 µM; in the test with SN12C renal, 98.6 µM; in the test with PC-3 prostate, over 100 µM; in the test with NCI-H460 lung, over 100 µM; in the test on HOP-62 NSCLC, over 100 µM; in the test with U251 CNS, over 100 µM. In the test on 786-0 renal, this molecule registered a TGI of over 100 µM.

With `CCOC(=O)CC(=O)NC1CC2CCC1(C)C2(C)C` (stereo not given), the TGI in the test on TK-10 renal, with UACC-62 melanoma, with SN12C renal, with RXF 393 renal, with PC-3 prostate and with NCI-H460 lung was over 100 µM each time. For the same molecule, the TGI in the test with HOP-62 NSCLC, with U251 CNS and with 786-0 renal was over 100 µM in each case.

Regarding `CN1C2CCC1CC(OC(c1ccccc1)c1ccccc1)C2` (stereo not given), the TGI with TK-10 renal is 44.5 µM; with UACC-62 melanoma, 30.4 µM; in the test with SN12C renal it was over 100 µM; in the test with RXF 393 renal, 42.3 µM; with PC-3 prostate it was 37.3 µM; in the test on HOP-92 NSCLC, 29.1 µM. Moreover, the TGI with HOP-62 NSCLC was 43 µM; with U251 CNS, 28.9 µM; with 786-0 renal it was 27 µM.

Regarding `C[C@]12CC[C@@H]3c4ccc(O)cc4CC[C@H]3[C@@H]1C/C(=C\c1ccc([N+](=O)[O-])cc1)C2=O`, the TGI in the test with TK-10 renal is over 100 µM; in the test with UACC-62 melanoma, over 100 µM; in the test on SN12C renal, over 100 µM; with RXF 393 renal, 50.4 µM; in the test with PC-3 prostate, over 100 µM; in the test on NCI-H460 lung, over 100 µM. The TGI in the test on HOP-62 NSCLC, in the test with U251 CNS and with 786-0 renal was over 100 µM each time.

Turning to `COC(=O)c1ccccc1C1CN=NC12Cc1ccc3ccccc3c1C2=O` (stereo not given), the TGI in the test with TK-10 renal, in the test with UACC-62 melanoma, in the test with SN12C renal, in the test on RXF 393 renal, in the test on PC-3 prostate and with HOP-92 NSCLC was over 100 µM in each case. Besides, the TGI with NCI-H460 lung, in the test on U251 CNS and in the test on 786-0 renal was over 100 µM in each case.

On to `C=C(O)c1ccccc1C#Cc1ccccc1C(=O)OC`, for which the TGI with TK-10 renal, with UACC-62 melanoma, in the test with SN12C renal, in the test with RXF 393 renal, with PC-3 prostate and in the test on NCI-H460 lung was over 10 µM throughout. Further, the total growth inhibition concentration (TGI) in the test on HOP-62 NSCLC, in the test on U251 CNS and with 786-0 renal was over 10 µM in each case.

In the case of `CC(C)=CCC[C@]1(C)CC[C@]2(C)C3CCC(=C(C)C)[C@@H](CCCO)[C@]3(C)CC[C@@]2(C)C1` (stereo not given in full), the TGI in the test with TK-10 renal was 44.3 µM; in the test with UACC-62 melanoma, over 100 µM; in the test with SN12C renal, over 100 µM; in the test on PC-3 prostate, over 100 µM; in the test with NCI-H460 lung, over 100 µM; in the test with HOP-62 NSCLC it was over 100 µM. Besides, the TGI with U251 CNS is 61.4 µM; in the test with 786-0 renal it was over 100 µM.

Consider `CC1=C2C(O)C(C(C)C(=O)NCC(C)C)CCC2(C)C=CC1=O` (stereo not given), for which the TGI in the test on UACC-62 melanoma, with SN12C renal, in the test with RXF 393 renal, with HOP-92 NSCLC, with NCI-H460 lung and in the test on HOP-62 NSCLC was over 100 µM throughout. This molecule yielded a TGI with U251 CNS of over 100 µM.

For `C=C[C@@H]1OC(=O)O[C@H]1CO`, the TGI in the test on TK-10 renal, in the test with UACC-62 melanoma, in the test with SN12C renal, with PC-3 prostate, in the test on HOP-62 NSCLC and in the test on U251 CNS was over 100 µM in each case. Also, the TGI in the test with 786-0 renal was over 100 µM.

Regarding `S=c1[nH]nc(COc2ccc3c(c2)CCCC3)n1/N=C/c1ccc(Cl)cc1`, the concentration for total growth inhibition (TGI) in the test on TK-10 renal is 38.6 µM; in the test with UACC-62 melanoma, 33.7 µM; in the test on SN12C renal, 37.9 µM; in the test on RXF 393 renal, 28.8 µM; in the test on PC-3 prostate, 31.2 µM; with HOP-92 NSCLC, 32.9 µM. The values for the TGI with NCI-H460 lung, in the test on HOP-62 NSCLC and in the test on U251 CNS were 30.2 µM, 32.3 µM and 34.6 µM, respectively.
